{
  "source": "PubChem BioAssay AID1259409",
  "about": "(Chemical Carcinogenesis Research Information System (CCRIS), 2018)",
  "origin": "cited, not measured here",
  "tested_on": "rodent chemically induced tumor inhibition, incidence and multiplicity",
  "test": "CCRIS tumor inhibitor studies",
  "settings": "Carcinogen: AZOXYMETHANE, 25843-45-2, Dose [Inhibitor]: 0, Route [Inhibitor]: ORAL, Species: RAT, Strain/Sex: F344/MALE, Promoter: NONE USED",
  "data": [
    {"compound": "CN1C(C(=O)Nc2ccccn2)=C(O)c2ccccc2S1(=O)=O", "values": [
      {"measurement": "tumour outcome (control, treated, inhibition, significance)", "setting": "150 PPM IN DIET BEGINNING 1 WK POST CARCINOGEN DOSE FOR DURATION OF STUDY (STUDY DURATION: 56 WK), Target Tissue: Type of Lesion: COLON: ADENOMA, Dose [Carcinogen]: 29.6 MG/KG IN NORMAL SALINE ONCE", "result": "11/30 (37%), 9/30 (30%), 19%, not calculated"},
      {"measurement": "tumour outcome (control, treated, inhibition, significance)", "setting": "150 PPM IN DIET BEGINNING 1 WK POST CARCINOGEN DOSE FOR DURATION OF STUDY (STUDY DURATION: 56 WK), Target Tissue: Type of Lesion: SMALL INTESTINE: ADENOCARCINOMA, Dose [Carcinogen]: 29.6 MG/KG IN NORMAL SALINE ONCE", "result": "10/30 (33%), 8/30 (27%), 20%, not calculated"},
      {"measurement": "tumour outcome (control, treated, inhibition, significance)", "setting": "150 PPM IN DIET BEGINNING 1 WK POST CARCINOGEN DOSE FOR DURATION OF STUDY (STUDY DURATION: 56 WK), Target Tissue: Type of Lesion: SMALL INTESTINE: ADENOMA, Dose [Carcinogen]: 29.6 MG/KG IN NORMAL SALINE ONCE", "result": "1/30 (3%), 1/30 (3%), 0%, not calculated"},
      {"measurement": "tumour outcome (control, treated, inhibition, significance)", "setting": "150 PPM IN DIET FOR 29 WK BEGINNING 1 WK POST CARCINOGEN TREATMENT (STUDY DURATION: 32 WK), Target Tissue: Type of Lesion: COLON: ADENOMA, Dose [Carcinogen]: 15 MG/KG BW 1/WK FOR 2 WK", "result": "77%, 33%, 57%, p<0.05"},
      {"measurement": "tumour outcome (control, treated, inhibition, significance)", "setting": "150 PPM IN DIET FOR 29 WK BEGINNING 1 WK POST CARCINOGEN TREATMENT (STUDY DURATION: 32 WK), Target Tissue: Type of Lesion: COLON: CARCINOMA, Dose [Carcinogen]: 15 MG/KG BW 1/WK FOR 2 WK", "result": "53%, 23%, 57%, p<0.05"},
      {"measurement": "tumour outcome (control, treated, inhibition, significance)", "setting": "200 PPM IN DIET BEGINNING 1 WK PRIOR TO CARCINOGEN TREATMENT FOR DURATION OF STUDY (STUDY DURATION: 54 WK), Target Tissue: Type of Lesion: COLON: ADENOCARCINOMA, Dose [Carcinogen]: 15 MG/KG/BW 1/WK FOR 2 WK", "result": "58%, 33%, 43%, p<0.05"},
      {"measurement": "tumour outcome (control, treated, inhibition, significance)", "setting": "200 PPM IN DIET BEGINNING 1 WK PRIOR TO CARCINOGEN TREATMENT FOR DURATION OF STUDY (STUDY DURATION: 54 WK), Target Tissue: Type of Lesion: COLON: ADENOMA., Dose [Carcinogen]: 15 MG/KG/BW 1/WK FOR 2 WK", "result": "6%, 8%, -33%, not calculated"},
      {"measurement": "tumour outcome (control, treated, inhibition, significance)", "setting": "200 PPM IN DIET BEGINNING PRIOR TO CARCINOGEN DOSE AND CONTINUING FOR DURATION OF STUDY (STUDY DURATION: 54 WK), Target Tissue: Type of Lesion: COLON: ADENOCARCINOMA, Dose [Carcinogen]: 15 MG/KG 1/WK FOR 2 WK", "result": "72%, 33%, 54%, p<0.001"},
      {"measurement": "tumour outcome (control, treated, inhibition, significance)", "setting": "200 PPM IN DIET BEGINNING PRIOR TO CARCINOGEN DOSE AND CONTINUING FOR DURATION OF STUDY (STUDY DURATION: 54 WK), Target Tissue: Type of Lesion: COLON: ADENOMA, Dose [Carcinogen]: 15 MG/KG 1/WK FOR 2 WK", "result": "14%, 3%, 79%, not calculated"},
      {"measurement": "tumour outcome (control, treated, inhibition, significance)", "setting": "200 PPM IN DIET BEGINNING PRIOR TO CARCINOGEN DOSE AND CONTINUING FOR DURATION OF STUDY (STUDY DURATION: 54 WK), Target Tissue: Type of Lesion: SMALL INTESTINE: ADENOCARCINOMA, Dose [Carcinogen]: 15 MG/KG 1/WK FOR 2 WK", "result": "50%, 17%, 66%, p<0.01"},
      {"measurement": "tumour outcome (control, treated, inhibition, significance)", "setting": "200 PPM IN DIET BEGINNING PRIOR TO CARCINOGEN DOSE AND CONTINUING FOR DURATION OF STUDY (STUDY DURATION: 54 WK), Target Tissue: Type of Lesion: SMALL INTESTINE: ADENOMA, Dose [Carcinogen]: 15 MG/KG 1/WK FOR 2 WK", "result": "3%, 0%, 100%, not calculated"},
      {"measurement": "tumour outcome (control, treated, inhibition, significance)", "setting": "200 PPM IN DIET FOR 56 WK BEGINNING 2 WK PRIOR TO CARCINOGEN TREATMENT (STUDY DURATION: 56 WK), Target Tissue: Type of Lesion: COLON(DISTAL): TUMOR, Dose [Carcinogen]: 15 MG/KG 1/WK FOR 2 WK", "result": "52%, 35%, 33%, p<0.05"},
      {"measurement": "tumour outcome (control, treated, inhibition, significance)", "setting": "200 PPM IN DIET FOR 56 WK BEGINNING 2 WK PRIOR TO CARCINOGEN TREATMENT (STUDY DURATION: 56 WK), Target Tissue: Type of Lesion: COLON(PROXIMAL): TUMOR, Dose [Carcinogen]: 15 MG/KG 1/WK FOR 2 WK", "result": "38%, 15%, 61%, p<0.01"},
      {"measurement": "tumour outcome (control, treated, inhibition, significance)", "setting": "200 PPM IN DIET FOR 56 WK BEGINNING 2 WK PRIOR TO CARCINOGEN TREATMENT (STUDY DURATION: 56 WK), Target Tissue: Type of Lesion: SMALL INTESTINE(DISTAL): TUMOR, Dose [Carcinogen]: 15 MG/KG 1/WK FOR 2 WK", "result": "12%, 6%, 50%, not significant"},
      {"measurement": "tumour outcome (control, treated, inhibition, significance)", "setting": "200 PPM IN DIET FOR 56 WK BEGINNING 2 WK PRIOR TO CARCINOGEN TREATMENT (STUDY DURATION: 56 WK), Target Tissue: Type of Lesion: SMALL INTESTINE(PROXIMAL): TUMOR, Dose [Carcinogen]: 15 MG/KG 1/WK FOR 2 WK", "result": "33%, 11%, 67%, p<0.05"}
    ]}
  ]
}
